Measurements: US8192962B2, “Processes for detecting toxic substances” (Daikin Industries, Ltd., priority 2001, dated 2012)

Test system: Genes belonging to other category
Assay: DNA chip mRNA expression in yeast, genes belonging to other category (Table 9)
Type: cell-based, Saccharomyces cerevisiae S288C
Method in brief: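 Measured as treated-to-untreated fluorescence ratio on a full-genome yeast DNA chip. Cells (S288C, YPD, 25° C.) were exposed in log phase for two hours to one chemical, dosed to curb growth without killing.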

Measured: The level of expressed mRNA in the presence of chemical substance/The level of expressed mRNA in the absence of chemical substance

C[S+](C)[O-] [(15), dimethylsulfoxide]
0.9: yeast gene YBL005W-A | yeast gene YDR358W | yeast gene YLR093C | yeast gene YMR139W | yeast gene YNL214W | yeast gene YPL018W
5.1: yeast gene YBR214W
3.5: yeast gene YDR481C
2.3: yeast gene YGL158W | yeast gene YKL096W | yeast gene YLR178C
1.4: yeast gene YBR109C | yeast gene YDL007W | yeast gene YDR104C | yeast gene YKL190W | yeast gene YKR014C | yeast gene YNL015W | yeast gene YOR117W
2.7: yeast gene YLR120C | yeast gene YOL013C
1.5: yeast gene YDR315C | yeast gene YJL030W | yeast gene YOR132W
1.8: yeast gene YAR010C | yeast gene YBL043W | yeast gene YJR029W | yeast gene YOR288C
1.0: yeast gene YEL066W | yeast gene YJL116C | yeast gene YKL041W | yeast gene YKL139W | yeast gene YNL333W | yeast gene YNR069C | yeast gene YOL164W | yeast gene YOR185C | yeast gene YPR103W
3.8: yeast gene YOR198C
3.1: yeast gene YDR085C | yeast gene YKL039W
2.0: yeast gene YJR086W | yeast gene YMR226C | yeast gene YOR285W
0.2: yeast gene YGL229C
3.6: yeast gene YCL027W
3.9: yeast gene YLR391W
4.0: yeast gene YPL154C
0.5: yeast gene YJR099W
1.6: yeast gene YBR201W
1.3: yeast gene YBL041W | yeast gene YDL238C | yeast gene YGR257C | yeast gene YKL008C | yeast gene YLR362W | yeast gene YMR004W | yeast gene YOR124C | yeast gene YOR259C | yeast gene YOR261C | yeast gene YPL109C | yeast gene YPR108W
3.0: yeast gene YHR071W
3.4: yeast gene YOR181W
3.2: yeast gene YJR004C | yeast gene YOR355W
1.9: yeast gene YHR139C | yeast gene YOR157C
2.8: yeast gene YCR088W | yeast gene YLR356W
1.7: yeast gene YDL126C | yeast gene YMR051C | yeast gene YMR219W | yeast gene YMR275C
2.6: yeast gene YDR388W | yeast gene YDR432W | yeast gene YGR136W | yeast gene YJL073W | yeast gene YLR250W | yeast gene YPL089C
3.3: yeast gene YIL140W | yeast gene YMR276W
6.5: yeast gene YGR213C
5.7: yeast gene YDR055W
0.7: yeast gene YDL008W | yeast gene YER107C | yeast gene YNL006W
2.9: yeast gene YDR259C
2.2: yeast gene YDR510W | yeast gene YER159C
0.8: yeast gene YCR004C | yeast gene YDR115W | yeast gene YFL028C | yeast gene YJR122W | yeast gene YLR090W | yeast gene YLR118C | yeast gene YLR251W | yeast gene YLR327C | yeast gene YNL007C | yeast gene YNR010W | yeast gene YOR165W | yeast gene YPL149W | yeast gene YPR073C
